Reference: US5108916A, “Process for stereoselectively hydrolyzing, transesterifying or esterifying with immobilized isozyme of lipase from Candida rugosa” (priority 1989, dated 1992)
Read-outs that look alike come from different tables or passages of the source.

Legend:
CSC-2 = test: Effect of additives and solvents on hydrolysis of ketoprofen monoglyceride by CSC-2; assay type: biochemical, Candida rugosa; details: solvent/buffer 1:1 two phase
Experimental: Hydrolysis of ketoprofen-monoglyceride (50mg) was carried out in various DMF-100mM (NH4)H2 PO4 buffer (pH 5.5) mixtures. In each flask a solution of ketoprofen monoglyceride (50mg) in DMF (200ul) was added. DMF was added followed by 100mM (NH4)H2 PO4 buffer. […] After 22 hours, 2%, 5%, and 10% DMF samples were acidified, extracted with CHCl3 (2×10ml) and analyzed. The other samples were analyzed directly as in Example 18. The acid produced decreases with increasing amount of DMF.
Small amounts of DMF were added to the reaction mixture to increase the solubility of KPG. In all cases 100mM ammonium phosphate buffer (pH 5.5) was used and 2% (v/v) detergents were added and the total volume was 10ml.
The buffer reaction (entry #2 in the table) contained enzyme in buffer (2 ml) and the buffer only (entry #1 in the table) reaction contained no enzyme.
The presence of a surfactant like Tween increases the solubility o lipophilic compounds in water. […] Tween 80 was added to make 1% and 2% solution (v/v). Bovine serum albumin (BSA) (10mg) was added to each of two flasks. A solution of 50mg of ketoprofen monoglyceride in 200ul DMF was added to each. After 20 hours at 250 rpm and 35° C. the reaction mixtures were acidified, extracted and analyzed by the usual HPLC procedure as in Example 18.
Various surfactants were used at 2% of the reaction volume to determine their effect on the enzymatic reaction involving the conversion of ketoprofen monoglyceride (KPG) to ketoprofen (KP). […] Flasks were covered with parafilm and incubated in a 35° C. water bath at 250 rpm, typically overnight. Reactions were stopped by acidification, extracted with CHCl3 (2×10 ml). The %acid and %ee were determined by the method of Example 18. It is to be noted that Hydrophile-Lipophile Balance (HLB) values have no apparent bearing on the ability of the surfactant to enhance the conversion of KPG to KP.
75 mg of KPG (in the absence of DMF) was individually weighed into 50 ml Erlenmeyer flasks. […] 9 ml of 100 mM (NH4)H2 PO4, pH 5.5 buffer was added, and the flasks were placed into a 35° C., 250 rpm water bath incubator for 20 hours. The reactions were acidified, extracted with CHCl3 and examined by HPLC as in Example 18. The %ee was determined as per Example 18.
Various amounts of oleic acid or its esters were added, and the reactions stopped at the times indicated, acidified, extracted with CHCl3 and analyzed as in Example 18.
An experiment was performed as in Example 41, but using 100, 200 and 500 ul of olive oil to determine if it would enhance the rate of conversion of KPG to KP. […] After 20 hours, all reactions were acidified, extracted with CHCl3 and analyzed by HPLC as in Example 18. The results are given below:
50 mg of KPG was weighed into Erlenmeyer flasks. […] Flasks were incubated at 35° C., 250 rpm for 23 hours. The reactions were stopped by acidification, extracted with CHCl3, and analyzed by HPLC as in Example 18. The additive is listed along with its percentage composition of glycerides of oleic acid.
To determine the problems associated with having oleic acid or oleate. esters in the reaction media, the following experiment was performed. […] Flasks were placed in a 35° C. incubator at 250 rpm, and the reactions were sampled by taking 200 ul aliquots at various time points. These aliquots were analyzed by HPLC (ODS-3 RAC column, CH3 OH: 10 mM (NH4)H2 PO4 (60:40) eluant, 4 ml/min, 254 nm detection) to determine the course of reaction. When approximately 40% acid was produced, the reactions were stopped by placing the flasks in the -70° C. freezer. Two extraction procedures were utilized to determine the best method of isolating S-Ketoprofen free of oleic acid. The first (listed as Extraction Procedure I in the following table) involved first making the solution basic (pH 10) with NaOH, then extracting with hexane, then CHCl3.

[1] = Conversion of ketoprofen esters in organic solvent/oleic acid media; assay type: biochemical
Experimental: To optimize the organic solvent used in the presence of oleic acid a variety of organic solvents were used, along with a variety of ketoprofen esters. In this experiment, 50 mg of ketoprofen esters were weighed into flasks, along with 1 ml of oleic acid and 9 ml of an organic solvent. The flasks were capped and incubated at 35° C., 250 rpm, for 10-26 hours before stopping the reaction by first adding 4 ml CHCl3 to solubilize the substrates and products, then filtering through a 0.2 um Gelman Nylaflo filter. Samples were then diluted in methanol and analyzed by HPLC as in Example 18. The experiment was also performed using 200 ul of oleic acid and 10ml buffer, which was acidified, extracted with CHCl3 and analyzed by HPLC as above.
One ml of oleic acid was added, as was 9 ml of buffer (100 mM (NH4)H2 PO4, pH 5.5) or organic solvent. Flasks were placed into a 35° C. incubator and shaken at 250 rpm for 13 hours. Reaction was stopped by adding 5 ml CHCl3 to solubilize the organic material and filtering the solutions using 0.2 um Gelman Nylaflo membranes to remove the enzyme. Samples were analyzed on an ODS-3 RAC column using CH3 OH:10 mM (NH4)H2PO4 (60:40) as eluant, flow rate 4 ml/min, and detection at 254 nm. %ee was determined by the resolution of diastereomeric amides on the above HPLC system, as per Example 18.

Lipase MY = test: Two phase Lipase MY hydrolysis of HPPA-Me in organic solvent/water mixtures; assay type: biochemical, Candida rugosa
Experimental: A. 75% organic solvent/25% aqueous buffer--Fifty milligrams of R,S-HPPA-Me was combined in 10 ml Scintillation vial with 7.5 ml of organic solvent, 2.5 ml of 50 mM phosphate buffer pH 6.0, and 5 mg Lipase MY. The reactions were placed on shaker and shaken for a period of 0-43 hours with samples being taken at various times.
B. 25% organic solvent/75% aqueous buffer--Fifty milligrams of R,S-HPPA-Me was combined, in 10 ml Scintillation vial with 2.5 ml of organic solvent, 7.5 ml 50mM phosphate buffer (pH 6.8), and 5 mg Lipase MY. The reactions were shaken for a period of 0-143 hours with samples being taken at various time points.
The data in Table 2 represents the % conversion and % R-HPPA produced using the indicated organic solvents in a two-phase system wherein 75% […] of the total vehicle (solvent) was water and the balance (25%) was organic solvents.

[2] = KPG 50 mg, 100 mg CSC-2 on silica (279-SD-1), 9 ml solvent (or buffer)/1 ml oleic acid, 13 hours

## C1=CCCCC1 [Cyclohexene]
CSC-2; 26 hours
  EE of S-acid: 89%
CSC-2; 26 hours, buffer = 100
  Relative Rate: 146
[1]; KPEG 50 mg, as E212
  % Acid: 3%
[1]; KPEG, as E212
  % ee S-acid: 52%
[1]; [2]
  % Acid: 12%
[1]; KPG, as E212
  % ee S-acid: 94%

## CC(C)=O [acetone]
Lipase MY
  % R: 0%
  Conversion (ester/acid): 0%

## CCO [ethyl alcohol]
Lipase MY
  Conversion (ester/acid): 0%
Lipase MY; solvent 25%, 43 hr
  % R: 0%
Lipase MY; solvent 75%, 43 hr
  % R: 0%

## CC(C)CC(C)(C)C [Isooctane]
CSC-2; 26 hours
  EE of S-acid: 96%
CSC-2; 26 hours, buffer = 100
  Relative Rate: 214
[1]; KPEG 50 mg, as E212
  % Acid: 48%
[1]; KPEG, as E212
  % ee S-acid: 97%
[1]; [2]
  % Acid: 39%
[1]; KPG, as E212
  % ee S-acid: 98%

## c1ccc2c(c1)CCCC2 [1,2,3,4-Tetrahydronapthalene]
CSC-2; 26 hours
  EE of S-acid: 85%
CSC-2; 26 hours, buffer = 100
  Relative Rate: 136
[1]; KPEG 50 mg, as E212
  % Acid: 1%
[1]; KPEG, as E212
  % ee S-acid: 1%
[1]; [2]
  % Acid: 2%
[1]; KPG, as E212
  % ee S-acid: 68%

## CC(C)c1ccccc1 [cumene]
Lipase MY; solvent 25%, 2.7 hr
  % R: 100%
  Conversion (ester/acid): 35%
CSC-2; 26 hours
  EE of S-acid: 86%
CSC-2; 26 hours, buffer = 100
  Relative Rate: 91

## xylenes
Lipase MY; solvent 25%, 5.3 hr
  % R: 100%
  Conversion (ester/acid): 49%
Lipase MY; solvent 75%, 5.36 hr
  % R: 89%
  Conversion (ester/acid): 41%
CSC-2; 26 hours
  EE of S-acid: 81%
CSC-2; 26 hours, buffer = 100
  Relative Rate: 44

## ClCC(Cl)Cl [1,1,2 trichloroethane]
Lipase MY; solvent 25%, 43 hr
  % R: 79%
  Conversion (ester/acid): 29%
CSC-2; 16 hour reactions
  Relative Rate: 0

## CC(C(=O)OCCO)c1cccc(C(=O)c2ccccc2)c1 (centres unmarked) [Ethylene Glycol Ester, ketoprofen ethylene glycol]
[1]; Buffer 10 ml, OA 200 ul
  % ee: 98%
[1]; Buffer 10 ml, OA 200 ul, enzyme not named in Example 55
  % Acid: 21%
[1]; CHCl3 9 ml, OA 1 ml
  % Acid: 0%
[1]; Hexane 9 ml, OA 1 ml, 10-26 hours
  % Acid: 29%
[1]; Hexane 9 ml, OA 1 ml, * stopped at 10 Hr
  % ee: 95%
[1]; Isooctane 9 ml, OA 1 ml
  % Acid: 47%
[1]; Isooctane 9 ml, OA 1 ml, * stopped at 10 Hr
  % ee: 98%
[1]; Toluene 9 ml, OA 1 ml
  % Acid: 0%

## ClC(Cl)(Cl)Cl [carbon tetrachloride]
Lipase MY; solvent 25%, 2.7 hr
  % R: 79%
  Conversion (ester/acid): 58%
Lipase MY; solvent 75%, 2.7 hr
  % R: 76%
  Conversion (ester/acid): 61%
CSC-2; 26 hours
  EE of S-acid: 95%
CSC-2; 26 hours, buffer = 100
  Relative Rate: 48

## CC(Cl)(Cl)Cl [1,1,1-Trichloroethane]
CSC-2; 26 hours
  EE of S-acid: 75%
CSC-2; 26 hours, buffer = 100
  Relative Rate: 25
[1]; KPEG 50 mg, as E212
  % Acid: 0%
[1]; KPEG, as E212
  % ee S-acid: 0%
[1]; [2]
  % Acid: 1%
[1]; KPG, as E212
  % ee S-acid: 0%
